These results are taken from patent US12173088B2, “Anti-microbial peptides” (priority 2018, dated 2024).

In one data set the test system is P. aeruginosa PAO1. Type of data set: cell-based, Pseudomonas aeruginosa. The note with it: PAO1. In a few lines:
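Broth microdilution in tryptic soy broth: log-phase cultures (OD600 ≈0.5) diluted to OD600 0.001, given two-fold peptide dilutions, incubated overnight at 37° C. Growth read at 630 nm.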

A further data set has as its system S. aureus USA300. It is filed as in vivo, Staphylococcus aureus. As for the experimental part:
Female C57BL/6 mice (6 weeks old) were purchased from Charles River. After environment adaptation, mice were induced neutropenic by administering two doses of cyclophosphamide on day 1 (150 mg/kg) and Day 4 (100 mg/kg). This cyclophosphamide administration was skipped for experiments using non-neutropenic mice (i.e., normal mice). On day 5, mice were infected with S. aureus USA300 LAC (˜2×10^6 CFU per mouse) via intraperitoneal injection (i.p.). For the treatment groups, mice were i.p. treated 2 hours post infection with peptides at a single dose of 5 mg/kg. Both positive and negative controls were included. At the end of the experiments, all animals were sacrificed according to institutional guidelines. Organs, including spleen, lung, kidney, and liver, were harvested, weighed, placed in sterile PBS and stored on ice. Harvested animal organs were subsequently homogenized using homogenizer (Omni, Kennesaw, GA). Proper dilutions, especially for untreated control groups, were made to get countable colonies. Blood agar plates were then incubated overnight at 37° C. The bacteria grown on plates were enumerated and plotted using the Graph pad Prism software.
Female C57BL/6 or Balb/c mice (6 weeks old) were purchased from Charles River. The mice were induced neutropenic by administering two doses of cyclophosphamide on day 1 (150 mg/kg) and Day 4 (100 mg/kg). On day 5, mice were infected with S. aureus USA300 (˜2×10^6 CFU per mouse) or K. pneumoniae E406-17 (˜5×10^5 CFU per mouse) via intraperitoneal injection (i.p.). For the treatment groups, mice were i.p. or intravenous (i.v.) treated 2 hours post infection with peptides at a single dose of 5, 10, or 15 mg/kg. Both positive and negative controls are used. At the end of the experiments, all animals were sacrificed according to institutional guidelines. […] The CFU of each mouse was plotted as an individual point and error bars represent the deviation within the experimental group. * p<0.05 ** p<0.01, ***p<0.001 and NS represents no significance (determined by Mann-Whitney test).

Data set [1] concerns S. aureus USA300 biofilms. The note with it: 25 μM; 24 hour formed static biofilms.
Description: The antibiofilm activity of the peptide against 24 hours established biofilms was evaluated. In short, S. aureus USA300 (10^5 CFU/mL) was made from exponential phase bacteria in TSB media and 200 μL was distributed to each well of the microtiter plate (Corning Costar Cat No. 3595). The plates were incubated at 37° C. for 24 hours to form biofilm. Culture treated with water served as a positive control while media without bacterial inoculation served as the negative control. Media was then pipetted out and the attached biofilms were washed with 1×PBS to remove the planktonic bacteria. Each well of the plate was then filled with 20 μL of 10× peptide solution and 180 μL of fresh TSB media and the plates were further incubated at 37° C. for 24 hours. Media was then pipetted out and the wells were washed with 1×PBS to remove planktonic cells. Live cells in the biofilms were then quantitated using XTT [2,3-bis(2-methyloxy-4-nitro-5-sulfophenyl)-2H-tertazolium-5-carboxanilide] assay by following the manufacturer's instructions with modifications. 180 μL of fresh TSB and 20 μL of XTT solution was added to each well and the plates were again incubated at 37° C. for 2 hours. Absorbance at 450 nm (only media with XTT containing wells served as the blank) was obtained using a ChroMate® microtiter plate reader. […]
The next data set in a line: in vivo. On the procedure: The efficacy of the two peptides was also investigated in non-neutropenic mice against S. aureus USA300. A higher bacterial inoculum at 2×10^8 CFU per mouse was used. […] To evaluate the peptide pharmacokinetics (Chhonker, et al. (2018) Biomed. Chromatogr. e4389), the plasma clearance rate of horine after intravenous injection of 10 mg/kg into BALB/c mice was followed.

Data set [2] deals with Klebsiella pneumoniae clinical strains. The data set can be described thus: microbe, parasite or virus in culture. The following applies: clinical strains.
A short description of another data set: Liver microsomal assay. The note with it: in one hour. It is filed as in vitro ADME. (In general: Microsomes from liver hold many membrane-bound enzymes, among them those of drug oxidation.)
In data set [3] the test system is S. aureus JE2 (wild type). On the procedure:
(§1) The antibacterial activity of peptides was evaluated using a standard broth microdilution protocol with minor modifications (Mishra, et al. (2017) Acta Biomater., 49:316-328). In brief, logarithmic phase bacterial cultures (i.e., optical density at 600 nm≈0.5) were diluted to 0.001 OD and aliquoted 90 μL per well into a 96-well polystyrene microplate. Added 10 μL peptides per well with various concentrations, plates were incubated at 37° C., overnight. Post incubation the plates are read at 630 nm using a ChroMate® Microplate Reader (GMI). […] To study the influence of medium conditions on the antimicrobial activity of peptides against S. aureus USA300 at different pHs (6.8, 7.2, and 8.0), 150 mM sodium chloride (NaCl), 5-10% of human serum, mouse plasma, and peritoneal fluid were included into the assays.

In another data set the test system is S. aureus ΔmprF mutant. The note with it: Table 17; strain ΔmprF. On the procedure:
as §1

Data set [4] has as its system clinical strains of methicillin-resistant and susceptible S. aureus. The data set can be described thus: microbe, parasite or virus in culture. The following applies: Staphylococcus aureus.

Values after ≈ are worked out from the molar mass of the structure shown. Read-outs that look alike come from different tables or passages of the source. Peptide text beside a SMILES is read from it.

For the compound `CC(C)C[C@H](NC(=O)[C@H](CC(C)C)NC(=O)[C@H](CCCCN)NC(=O)[C@H](CC(C)C)NC(=O)CNC(=O)[C@H](CC(C)C)NC(=O)[C@H](CO)NC(=O)[C@H](CC(C)C)NC(=O)[C@H](CC(C)C)NC(=O)[C@H](CC(C)C)NC(=O)[C@H](CCCCN)NC(=O)[C@H](CC(C)C)NC(=O)CN)C(N)=O` [DFT561, GLKLLLSLGLKLL] (H-GLKLLLSLGLKLL-NH2; N-terminus and C-terminus assumed), in the data set on P. aeruginosa PAO1, the “MIC PA (P. aeruginosa PAO1)” value is greater than 25 µM. Besides, the Killing result in the data set with S. aureus USA300 (USA300, in vivo, 5 mg/kg) is “up to 90%”. Further, the “S. aureus killed in biofilms” value in [1] stood at 60%.
In the case of `CC(C)C[C@H](NC(=O)[C@H](Cc1c[nH]c2ccccc12)NC(=O)[C@H](Cc1c[nH]c2ccccc12)NC(=O)[C@@H](N)Cc1c[nH]c2ccccc12)C(=O)N[C@@H](CCCNC(=N)N)C(=O)N[C@@H](CCCNC(=N)N)C(=O)N[C@@H](CCCNC(=N)N)C(=O)N[C@@H](Cc1c[nH]c2ccccc12)C(N)=O` [Horine, WWWLRRRW] (H-WWWLRRRW-NH2; N-terminus and C-terminus assumed), in the data set with P. aeruginosa PAO1, the “MIC P. aeruginosa PAO1” value was determined as 12.5 µM (≈ 16.8 µg/mL). For the same compound, the “Time to become undetectable in plasma” value in “in vivo” (10 mg/kg i.v.) is no more than 1 h. The compound also showed a level at 5 min in the data set “in vivo” (BALB/c, mouse, plasma, iv, 10 mg/kg) of 266 ng/mL. Also, the MIC in data set [2] was greater than 64 µM; in data set [3] (JE2 (wild type)) it was 4 µM (≈ 5.37 µg/mL); in the data set with S. aureus ΔmprF mutant, 2 µM (≈ 2.69 µg/mL). The “Degradation in liver microsomal assay” value in the data set “Liver microsomal assay” came to 5000.
Turning to `CC(C)[C@H](NC(=O)[C@H](Cc1c[nH]c2ccccc12)NC(=O)[C@H](Cc1c[nH]c2ccccc12)NC(=O)[C@H](Cc1c[nH]c2ccccc12)NC(=O)[C@H](Cc1c[nH]c2ccccc12)NC(=O)[C@H](CCCNC(=N)N)NC(=O)[C@H](CCCNC(=N)N)NC(=O)[C@@H](N)CCCNC(=N)N)C(N)=O` [Verine, RRRWWWWV] (H-RRRWWWWV-NH2; N-terminus and C-terminus assumed), the “Degradation in liver microsomal assay” value in the data set “Liver microsomal assay” is recorded as 5000. Also, the MIC in [3] (Table 17, strain JE2) amounted to 4 µM (≈ 5.32 µg/mL); in the data set on S. aureus ΔmprF mutant it was 2 µM (≈ 2.66 µg/mL).
`CN[C@H](CC(C)C)C(=O)N[C@H]1C(=O)N[C@@H](CC(N)=O)C(=O)N[C@H]2C(=O)N[C@H]3C(=O)N[C@H](C(=O)N[C@H](C(=O)O)c4cc(O)cc(O)c4-c4cc3ccc4O)[C@H](O)c3ccc(c(Cl)c3)Oc3cc2cc(c3O[C@@H]2O[C@H](CO)[C@@H](O)[C@H](O)[C@H]2O[C@H]2C[C@](C)(N)[C@H](O)[C@H](C)O2)Oc2ccc(cc2Cl)[C@H]1O` [Vancomycin]: the CFU decrease with S. aureus USA300 (spleen, lung, kidney, liver, 10 mg/kg, positive control) is reported as 1-4 logs. Also, the MIC in data set [4] (MSSA, strain B243-16 MSSA) amounted to 0.5 µM (≈ 0.725 µg/mL); in data set [4] (MSSA, strain B254-16 MSSA), 0.5 µM (≈ 0.725 µg/mL); in [4] (MSSA, strain B255-16 MSSA), 1 µM (≈ 1.45 µg/mL); in data set [4] (MSSA, strain B262-16 MSSA) it was 0.5 µM (≈ 0.725 µg/mL); in data set [4] (MSSA, strain B269-16 MSSA), 1 µM (≈ 1.45 µg/mL); in data set [4] (NEWMAN, strain Newman) it was 1 µM (≈ 1.45 µg/mL). For the same compound, the MIC in [4] (USA200, strain USA200) is 0.5 µM (≈ 0.725 µg/mL); in [4] (USA300, strain USA300), 0.5 µM (≈ 0.725 µg/mL); in data set [4] (USA400, strain USA400), 1 µM (≈ 1.45 µg/mL); in data set [4] (strain M106-16), 1 µM (≈ 1.45 µg/mL); in data set [4] (strain M108-16), 1 µM (≈ 1.45 µg/mL); in [4] (strain M109-16), 0.5 µM (≈ 0.725 µg/mL). The MIC in [4] (strain M111-16) was determined as 0.5 µM (≈ 0.725 µg/mL); in data set [4] (strain M112-16), 0.5 µM (≈ 0.725 µg/mL); in [4] (strain M113-16), 1 µM (≈ 1.45 µg/mL); in data set [4] (strain M114-16) it was 1 µM (≈ 1.45 µg/mL); in data set [4] (strain M116-16), 0.5 µM (≈ 0.725 µg/mL); in [4] (strain M117-16), 0.5 µM (≈ 0.725 µg/mL). Moreover, the MIC in [4] (strain M118-16) stood at 1 µM (≈ 1.45 µg/mL); in [4] (strain M119-16) it was 0.5 µM (≈ 0.725 µg/mL); in data set [4] (strain M120-16), 0.5 µM (≈ 0.725 µg/mL); in data set [4] (strain M121-16), 1 µM (≈ 1.45 µg/mL); in [4] (strain M122-16), 1 µM (≈ 1.45 µg/mL); in [4] (strain M123-16), 0.5 µM (≈ 0.725 µg/mL). Also, the MIC came to 0.5 µM (≈ 0.725 µg/mL) in data set [4] (strain M126-16); 0.5 µM (≈ 0.725 µg/mL) in [4] (strain M127-16); 1 µM (≈ 1.45 µg/mL) in data set [4] (strain M128-16); 0.5 µM (≈ 0.725 µg/mL) in [4] (strain M129-16); 0.5 µM (≈ 0.725 µg/mL) in [4] (strain M130-16); 2 µM (≈ 2.9 µg/mL) in data set [4] (strain UAMS-1). The same compound had an MIC in [4] (strain mu50) of 2 µM (≈ 2.9 µg/mL).
